Patent publication US20230000813A1, “COMPOUND FOR THE TREATMENT OF BOVINE OR SWINE RESPIRATORY DISEASE” (Intervet Inc., priority 2016, published 2023)
≈ marks a conversion by molar mass, not a printed value.

Key:
Assay in all cases: MIC, broth-microdilution (CLSI VET01-A4)
Assay type in all cases: cell-based
[1] = test system: Mannheimia haemolytica MH 6374 (ATCC 33396, reference strain); conditions: Mannheimia haemolytica MH 6374; for MIC: read-out: MIC MH 6374
Description: (§1) The Minimum inhibitory concentrations (MIC) of compounds according to the invention for a number of veterinary bacterial pathogens were determined by the broth-microdilution method according to CLSI document VET01-A4.
(§2) Microdilution trays containing a doubling dilution series of the test compound were used for the tests. The MIC results were interpreted according to the CLSI documents VET01-S3. The lowest concentration of compound at which no visible growth (i.e. no turbidity) detected by the unaided eye was recorded as the MIC.
(§3) The Minimum inhibitory concentrations (MIC) of compounds according to the invention were determined by the broth-microdilution method according to CLSI document VET01-A4.
(§4) Microdilution trays containing a doubling dilution series of the test compound were used for the tests.
(§5) The MIC results were interpreted according to the CLSI documents VET01-S3. The lowest concentration of compound at which no visible growth (i.e. no turbidity) detected by the unaided eye was recorded as the MIC.

[2] = test system: Mannheimia haemolytica MH 6357 (M7/2, reference strain, cattle infection strain); conditions: Mannheimia haemolytica MH 6357; for MIC: read-out: MIC MH 6357
Description: as §1, §2, §3, §4, §5

[3] = test system: Mannheimia haemolytica MH 12587 (1071, BRD field isolate, macrolide-resistance: erm+, E+); conditions: Mannheimia haemolytica MH 12587, macrolide-resistant
Description: as §1, §2, §3, §4, §5

[4] = test system: Pasteurella multocida PM 12080 (IV102277-0093, BRD field isolate); conditions: Pasteurella multocida PM 12080
Description: as §1, §2, §3, §4, §5

[5] = test system: Pasteurella multocida PM 6391 (ATCC 43137, reference strain); conditions: Pasteurella multocida PM 6391
Description: as §1, §2, §3, §4, §5

[6] = test system: Pasteurella multocida PM 6267 (P 2225 (L386), reference strain, mouse infection strain); conditions: Pasteurella multocida PM 6267
Description: as §1, §2, §3, §4, §5

[7] = test system: Mannheimia haemolytica MH 13093 (XB0472-6014.1, BRD field isolate)
Description: as §1, §2

[8] = test system: Mannheimia haemolytica MH 10720 (154, BRD field isolate); conditions: Mannheimia haemolytica MH 10720
Description: as §1, §2, §3, §4, §5

SMILES | MIC [1] [µM] | MIC [2] [µM] | MIC MH 12587 [3] [µM] | MIC PM 12080 [4] | MIC PM 6391 [5] | MIC PM 6267 [6] | MIC [7] [µM] | MIC MH 6374 [1] | MIC MH 10720 [8] | MIC MH 6357 [2] | MIC ([8]; read-out: MIC MH 10720) [µM]
C[C@@H](O)[C@H](NC(=O)c1ccc(C#Cc2ccc(CNCc3ccc(F)cc3)cc2)cc1)C(=O)NO [Compound 475] | 0.4 (≈ 0.19 µg/mL) | 0.2 (≈ 0.0951 µg/mL) | 0.8 (≈ 0.38 µg/mL) | <=0.1 μM | <=0.1 μM | <=0.1 μM | 0.8 (≈ 0.38 µg/mL) |  |  |  | 
C=C(C)CNCc1ccc(C#Cc2ccc(C(=O)N[C@H](C(=O)NO)[C@@H](C)O)cc2)s1 [Compound 476] |  | 0.2 (≈ 0.0855 µg/mL) | 0.8 (≈ 0.342 µg/mL) | <=0.1 μM | <=0.1 μM | <=0.1 μM | 0.4 (≈ 0.171 µg/mL) | <=0.1 μM | <=0.1 μM |  | 
C[C@@H](O)[C@H](NC(=O)c1ccc(C#Cc2ccc(CNCC(F)(F)F)s2)cc1)C(=O)NO [Compound 477] | 0.2 (≈ 0.0911 µg/mL) |  | 0.4 (≈ 0.182 µg/mL) | <=0.1 μM | <=0.1 μM | <=0.1 μM | 0.4 (≈ 0.182 µg/mL) |  | <=0.1 μM | <=0.1 μM | 
C[C@@H](O)[C@H](NC(=O)c1ccc(C#Cc2ccc(CN3CC=CC3)s2)cc1)C(=O)NO [Compound 478] |  |  | 0.4 (≈ 0.17 µg/mL) | <=0.1 μM | <=0.1 μM | <=0.1 μM | 0.2 (≈ 0.0851 µg/mL) | <=0.1 μM | <=0.1 μM | <=0.1 μM | 
C#CCNCc1ccc(C#Cc2ccc(C(=O)N[C@H](C(=O)NO)[C@@H](C)O)cc2)s1 [Compound 479] | 0.2 (≈ 0.0823 µg/mL) |  | 0.8 (≈ 0.329 µg/mL) | <=0.1 μM | <=0.1 μM | <=0.1 μM | 0.8 (≈ 0.329 µg/mL) |  | <=0.1 μM | <=0.1 μM | 
CSCCNCc1ccc(C#Cc2ccc(C(=O)N[C@H](C(=O)NO)[C@@H](C)O)cc2)s1 [Compound 482] | 0.4 (≈ 0.179 µg/mL) | 0.2 (≈ 0.0895 µg/mL) | 0.8 (≈ 0.358 µg/mL) | <=0.1 μM | <=0.1 μM | <=0.1 μM | 0.8 (≈ 0.358 µg/mL) |  | <=0.1 μM |  | 
Cc1cnc(CNCc2ccc(C#Cc3ccc(C(=O)N[C@H](C(=O)NO)[C@@H](C)O)cc3)s2)o1 [Compound 484] | 0.4 (≈ 0.187 µg/mL) | 0.2 (≈ 0.0937 µg/mL) | 0.8 (≈ 0.375 µg/mL) | <=0.1 μM | <=0.1 μM | <=0.1 μM | 0.8 (≈ 0.375 µg/mL) |  | <=0.1 μM |  | 
C[C@@H](O)[C@H](NC(=O)c1ccc(C#Cc2ccc(CNCc3ccc(F)cc3)s2)cc1)C(=O)NO [Compound 485] |  |  | 0.4 (≈ 0.193 µg/mL) | <=0.1 μM | <=0.1 μM | <=0.1 μM | 0.2 (≈ 0.0963 µg/mL) | <=0.1 μM | <=0.1 μM | <=0.1 μM | 
C=C(C)CNCc1ccc(C#Cc2ccc(C(=O)N[C@H](C(=O)NO)[C@@H](C)O)cc2)cn1 [Compound 486] | 1.6 (≈ 0.676 µg/mL) | 0.8 (≈ 0.338 µg/mL) | 1.6 (≈ 0.676 µg/mL) | <=0.1 μM | <=0.1 μM | <=0.1 μM | 1.6 (≈ 0.676 µg/mL) |  |  |  | 0.2 (≈ 0.0845 µg/mL)
C[C@@H](O)[C@H](NC(=O)c1ccc(C#Cc2ccc(CNCC(F)(F)F)nc2)cc1)C(=O)NO [Compound 487] | 1.6 (≈ 0.721 µg/mL) | 0.4 (≈ 0.18 µg/mL) | 1.6 (≈ 0.721 µg/mL) | <=0.1 μM | <=0.1 μM | <=0.1 μM | 1.6 (≈ 0.721 µg/mL) |  | <=0.1 μM |  | 
C#CCNCc1ccc(C#Cc2ccc(C(=O)N[C@H](C(=O)NO)[C@@H](C)O)cc2)cn1 [Compound 490] | 0.8 (≈ 0.325 µg/mL) | 0.4 (≈ 0.163 µg/mL) | 1.6 (≈ 0.65 µg/mL) | <=0.1 μM | <=0.1 μM |  | 1.6 (≈ 0.65 µg/mL) |  | <=0.1 μM |  | 
Cc1cnc(CNCc2ccc(C#Cc3ccc(C(=O)N[C@H](C(=O)NO)[C@@H](C)O)cc3)cn2)o1 [Compound 495] | 1.6 (≈ 0.742 µg/mL) | 0.4 (≈ 0.185 µg/mL) | 1.6 (≈ 0.742 µg/mL) | <=0.1 μM | <=0.1 μM | <=0.1 μM | 1.6 (≈ 0.742 µg/mL) |  | <=0.1 μM |  | 
